The text below walks through data of patent publication US4483867A, “Antifibrinolytically active derivatives of tranexamic acid” (KabiVitrum AB, priority 1981, dated 1984).

Structures can show the parent of a compound that is named as a salt.

The nature of series [1]: In vitro test - hydrolysis in human plasma (half life). The series is classed as in vitro ADME. The conditions noted are these: 37° C., 2.3·10^-3 M, trans form, hydrochloride salt, HPLC, UV 210 nm. The source says: (§1) In the biological tests described in sections A, B and C below, the test compounds were used in trans form and in the form of hydrochloride salt. The test results given in Tables 1 and 2 are average values.
(§2) The compounds of the present invention, which are esters of tranexamic acid, are converted to tranexamic acid in vivo either during the absorption through the gastro-intestinal wall or by enzymes present in the blood. In order to test the stability of compounds of the invention the half life in human plasma of a number of compounds of the invention was compared to the half life of the same ester in a phosphate buffer of the same pH. The half life, that is, the time within which the amount of unhydrolysed test compound is reduced by 50%, was calculated from the decrease of intact test compound with time. This decrease of intact test compound was monitored by UV-detection at 210 nm using high performance liquid chromatography (HPLC) in the reversed phase mode with mixtures of methanol and phosphate buffer as eluents. The stability in plasma was studied by addition of […] of plasma thermostated to 37° C. The concentration of the test compound in plasma amounted to 2.3·10^-3 M. The plasma samples were injected directly into the column after filtration. The half life in buffer solution were determined in the same way except that no filtration was needed.

The test system of series [2] is fibrinolytic activity induced by porcine tissue activator. Kind of series: Antifibrinolytic activity in chandler loop (inhibition of clot lysis induced by porcine tissue activator). Format: biochemical, human blood; porcine tissue activator. The settings on record: for Percent inhibition of fibrinolytic activity induced by porcine tissue activator: 1 micromole/liter, human blood, 20 PU/ml porcine tissue activator, six hours, mean. As for the experimental part: as §1
The antifibrinolytic properties of tranexamic acid and a number of compounds of the invention were tested in an artificial circulating blood system, the chandler loop (Chandler, A. B., In vitro thrombolytic coagulation of blood. A method for producing a thrombus. Lab.Invest. 7, 110, 1958.) Human blood was mixed with ^125 I-labelled fibrinogen, divided into 1.5 ml portions and filled into plastic tubings. After recalcification the loops were rotated for 24 hours during which ^125 I-labelled clots were formed. Fibrinolysis as measured with release of ^125 I-labelled fibrin degradation products from the clot, was initiated by adding 20 PU/ml of porcine tissue activator to the loops. Clot lysis was followed during six hours and the cumulative release of ^125 I FDP was plotted v.s. time of lysis. […] The effect on the clot lysis of compounds of the invention was tested in this system and compared to the inhibitory effect of tranexamic acid. No significant difference (p>0.05) between the antifibrinolytic effect of tranexamic acid and the tested compounds of the invention was found in this test system.

Series [3] is described as follows: In vitro test - hydrolysis in phosphate buffer pH 7.5 (half life). Format: physicochemical. The settings on record: trans form, hydrochloride salt, HPLC, UV 210 nm.
Text: as §1, §2

Series [4] is described as follows: In vivo test - absorption in rats after oral administration (tranexamic acid recovered in urine). The settings on record: for Absorption after oral administration, in words: compared to tranexamic acid. As for the experimental part: as §1
Rats were chosen to study the absorption after oral administration of compounds of the invention which are esters of tranexamic acid. Absorption of tranexamic acid itself is very poor in rats.
The determination of absorption in the rats was performed in the following way: Male rats in groups of three or four were given the test compound by gavage (1 mmol/kg-0.1 mmol/kg, 2 ml/kg). The urine was collected at the intervals 0-6, 6-24, 24-48 and 48-72 hours. At the end of each interval the cages were rinsed with 20 ml of distilled water, which also was collected and analysed. The urine sampls were then analysed for their content of tranexamic acid by a gaschromatographic method according to Wessman J., Stromberg S., Anal. Chem. 49 (1977) 369. The results are shown in table 1, where the total absorption is given as the molar amount of tranexamic acid which was recovered in the urine samples compared to the amount of administered test compound, also calculated as tranexamic acid.

For series [5] the following is noted: normally, clinical use; cited from earlier work.
The conditions of series [6]: large oral intake, about 3 to about 6 grams per 24 hours; cited from earlier work.

The half-life is the time in which the quantity being followed falls by half.

Turning to `CC(C)(C)C(=O)OCOC(=O)[C@H]1CC[C@H](CN)CC1` [Example 1, pivaloyloxymethyl trans-4-aminomethylcyclohexanecarboxylate hydrochloride], the half-life at 2300 µM in series [1] turned out to be 5 min. For the same compound, the “Percent inhibition of fibrinolytic activity induced by porcine tissue activator” value (from here on “Percent inhibition”) in series [2] is listed as 19.3 ± 4.3%.

With `CCOC(=O)OC(C)OC(=O)[C@H]1CC[C@H](CN)CC1` (stereo partly drawn) [Example 3, 1-(ethyloxycarbonyloxy)ethyl trans-4-aminomethylcyclohexanecarboxylate hydrochloride], the results for the half-life at 2300 µM in series [3] and in series [1] were 90 h and 1.5 min, respectively. Also, the “Percent inhibition” value in series [2] came out at 23.4 ± 5.1%.

Consider `CC(C)OC(=O)OC(C)OC(=O)[C@H]1CC[C@H](CN)CC1` (stereo partly drawn) [Example 4, 1-(isopropyloxycarbonyloxy)ethyl trans-4-aminomethylcyclohexanecarboxylate hydrochloride], for which the “Absorption after oral administration, in words” value in series [4] was “absorbed to a very high degree”. The “Percent inhibition” value in series [2] is listed as 25.8 ± 5.5%.

Consider `CC(=O)OC(C)OC(=O)[C@H]1CC[C@H](CN)CC1` (stereo partly drawn) [Example 5, 1-(acetyloxy) ethyl trans-4-aminomethylcyclohexanecarboxylate], for which, in series [1], the half-life at 2300 µM stood at 9 min. Moreover, the “Percent inhibition” value in series [2] is on record as 19.5 ± 4.7%.

With `CC(C)C(=O)OCOC(=O)[C@H]1CC[C@H](CN)CC1` [Example 6, isobutyryloxymethyl trans-4-aminomethylcyclohexanecarboxylate], the half-life at 2300 µM in series [1] was determined as 0.5 min. Also, in series [2], the “Percent inhibition” value was found to be 32.4 ± 5.3%.

As to `CC(OC(=O)C(C)C)OC(=O)[C@H]1CC[C@H](CN)CC1` (stereo partly drawn) [Example 7, 1-(isobutyryloxy)ethyl trans-4-aminomethylcyclohexanecarboxylate], the “Percent inhibition” value in series [2] came out at 23.8 ± 5.7%.

As to `NC[C@H]1CC[C@H](C(=O)OCOC(=O)[C@H]2CC[C@H](CN)CC2)CC1` [Example 11, methandiol bis-(trans-4-aminomethylcyclohexanecarboxylate) dihydrochloride], the values for the half-life at 2300 µM in series [3] and in series [1] were 26 h and 1.5 min, respectively.

In the case of `CC(OC(=O)[C@H]1CC[C@H](CN)CC1)OC(=O)[C@H]1CC[C@H](CN)CC1` [Example 13, 1,1-Ethandiol bis-(trans-4-aminomethylcyclohexanecarboxylate) dihydrochloride], the results for the half-life at 2300 µM in series [3] and in series [1] were 70 h and 11 min, respectively.

On to `CN(C)C(=O)C(OC(=O)[C@H]1CC[C@H](CN)CC1)OC(=O)[C@H]1CC[C@H](CN)CC1` [Example 16, 2,2-dihydroxy-N,N-dimethylacetamide bis-(trans-4-aminomethylcyclohexanecarboxylate)], for which the “Percent inhibition” value in series [2] amounted to 32.2 ± 4.7%.

Turning to `NC[C@H]1CC[C@H](C(=O)O)CC1` [Tranexamic acid, trans-4-aminomethylcyclohexanecarboxylic acid], the “Absorption after oral administration, in words” value in series [4] is given as “very poor”. For the same compound, the dose excreted at 72 h in series [4] (rat, po, male rats, by gavage, 1 mmol/kg-0.1 mmol/kg, 2 ml/kg, tranexamic acid recovered in urine 0-72 hours vs. amount administered, trans form, hydrochloride salt, read-out: Absorption Mole % (average values of four tests)) was determined as 11 ± 1.4%. In addition, the “Percent inhibition” value in series [2] is 25.6 ± 3.9%. The “Antifibrinolytic effect / inhibition of clot lysis, in words” value in series [2] (chandler loop) is listed as “clot lysis was inhibited in a dose dependent manner”. For the same compound, in series [5], the “Absorption of administered tranexamic acid, oral route” value was 35-40%. In series [6], the “Undesired side effects, in words” value is on record as “causes in some patients undesired side effects in the gastro-intestinal tract”.
